Kd and Ki data for 18 compounds are collected here from patent publication US20120004230A1, “IMIDAZOLE DERIVATIVES” (priority 2006, published 2012).

This experiment addresses T1, TAAR1 (Mus musculus, UniProt Q923Y8).
T1 construct: expressed in transfected cells; host or cells: HEK293 cells (ATCC # CRL-1573), stably transfected with a pIRESneo2 expression plasmid; membranes prepared from them
The experiment can be described thus: Radioligand binding to TAAR1, membranes of stably transfected HEK293 cells. Here is the method:
For the construction of expression plasmids, the coding sequences of human, rat and mouse TAAR 1 were amplified from genomic DNA essentially as described by Lindemann et al. (2005) Genomics 85, 372-385. The Expand High Fidelity PCR System (Roche Diagnostics) was used with 1.5 mM Mg^2F and purified PCR products were cloned into pCR2.1-TOPO cloning vector (Invitrogen) following the instructions of the manufacturer. PCR products were subcloned into the pIRESneo2 vector (BD Clontech, Palo Alto, Calif.), and expression vectors were sequence verified before introduction in cell lines.
HEK293 cells (ATCC # CRL-1573) were cultured essentially as described in Lindemann et al. (2005) Genomics 85, 372-385. For the generation of stably transfected cell lines, HEK293 cells were transfected with the pIRESneo2 expression plasmids containing the TAAR coding sequences (described above) with Lipofectamine 2000 (Invitrogen) according to the instructions of the manufacturer, and 24 hours post transfection, the culture medium was supplemented with 1 mg/ml G418 (Sigma, Buchs, Switzerland). After a culture period of about 10 days, clones were isolated, expanded and tested for responsiveness to trace amines (all compounds purchased from Sigma) with the cAMP Biotrak Enzyme immunoassay (EIA) System (Amersham) following the non-acetylation EIA procedure provided by the manufacturer.
Cells at confluence were rinsed with ice-cold phosphate buffered saline without Ca^2+ and Mg^2+ containing 10 mM EDTA and pelleted by centrifugation at 1000 rpm for 5 minutes at 4° C. The pellet was then washed twice with ice-cold phosphate buffered saline and the cell pellet was frozen immediately by immersion in liquid nitrogen and stored until use at −80° C. The cell pellet was then suspended in 20 ml HEPES-NaOH (20 mM), pH 7.4 containing 10 mM EDTA, and homogenized with a Polytron (PT 3000, Kinematica) at 10,000 rpm for 10 seconds. The homogenate was centrifuged at 48,000×g for 30 minutes at 4° C. and the pellet resuspended in 20 ml HEPES-NaOH (20 mM), pH 7.4 containing 0.1 mM EDTA (buffer A), and homogenized with a Polytron at 10,000 rpm for 10 seconds. The homogenate was then centrifuged at 48,000×g for 30 minutes at 4° C. and the pellet resuspended in 20 ml buffer A, and homogenized with a Polytron at 10,000 rpm for 10 seconds. Protein concentration was determined by the method of Pierce (Rockford, Ill.). The homogenate was then centrifuged at 48,000×g for 10 minutes at 4° C., resuspended in HEPES-NaOH (20 mM), pH 7.0 including MgC12 (10 mM) and CaCl2 ([…]) (buffer B) at 200 μg protein per ml and homogenized with a Polytron at 10,000 rpm for 10 seconds.
Binding assay was performed at 4° C. in a final volume of 1 ml, and with an incubation time of 30 minutes. The radioligand [^3H]-rac-2-(1,2,3,4-tetrahydro-1-naphthyl)-2-imidazoline was used at a concentration equal to the calculated Kd value of 60 nM to give a total binding at around 0.1% of the total added radioligand concentration, and a specific binding which represented approximately 70-80% of the total binding. Non-specific binding was defined as the amount of [^3H]-rac-2-(1,2,3,4-tetrahydro-1-naphthyl)-2-imidazoline bound in the presence of the appropriate unlabelled ligand (10 μM). Competing ligands were tested in a wide range of concentrations ([…]). […] Each experiment was performed in duplicate. All incubations were terminated by rapid filtration through UniFilter-96 plates (Packard Instrument Company) and glass filter GF/C, pre-soaked for at least 2 hours in polyethylenimine 0.3%, and using a Filtermate 96 Cell Harvester (Packard Instrument Company). The tubes and filters were then washed 3 times with 1 ml aliquots of cold buffer B. Filters were not dried and soaked in Ultima gold (45 μl/well, Packard Instrument Company) and bound radioactivity was counted by a TopCount Microplate Scintillation Counter (Packard Instrument Company).

The mark [1] stands for this setting: mouse TAAR1, radioligand [3H]-rac-2-(1,2,3,4-tetrahydro-1-naphthyl)-2-imidazoline at 60 nM, 4° C., 30 minutes, read-out: Ki (μM) mouse.

Read-outs that look alike come from different tables or passages of the source.

T1 sequence (Q923Y8 whole entry): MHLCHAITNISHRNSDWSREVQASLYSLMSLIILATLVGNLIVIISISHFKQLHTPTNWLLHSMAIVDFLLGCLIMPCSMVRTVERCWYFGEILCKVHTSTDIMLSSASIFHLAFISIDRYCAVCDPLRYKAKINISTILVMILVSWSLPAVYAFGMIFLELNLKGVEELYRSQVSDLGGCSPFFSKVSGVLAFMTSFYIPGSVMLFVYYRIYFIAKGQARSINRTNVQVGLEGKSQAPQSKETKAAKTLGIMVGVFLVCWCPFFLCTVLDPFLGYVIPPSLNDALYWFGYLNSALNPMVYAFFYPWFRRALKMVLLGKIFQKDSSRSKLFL

The Kd is the free concentration of one partner at which half of the binding sites on the other are occupied at equilibrium, for simple one-to-one binding. With `c1ccc2c(c1)CCCC2C1=NCCN1` (racemic) [[^3H]-rac-2-(1,2,3,4-tetrahydro-1-naphthyl)-2-imidazoline, reference compound], the Kd (radioligand used at a concentration equal to its calculated Kd, TAAR1 species not given) is 60 nM.
By Ki is commonly meant a dissociation constant, usually derived from enzyme kinetics or from competition with a known ligand. `CCC(Cc1cnc[nH]1)c1ccccc1` (stereo not drawn) [Example 1, 4-(2-Phenyl-butyl)-1H-imidazole]: the inhibitory constant (Ki) is 0.0609 µM.
On the same count and under the same terms, the result for `Clc1ccccc1CCc1cnc[nH]1` [Example 5, 4-[2-(2-Chloro-phenyl)-ethyl]-1H-imidazole] reads 0.0059 µM; that for `COc1ccccc1CCc1cnc[nH]1` [Example 8, 4-[2-(2-Methoxy-phenyl)-ethyl]-1H-imidazole], 0.0843 µM; that for `Clc1cccc(CCc2cnc[nH]2)c1` [Example 11, 4-[2-(3-Chloro-phenyl)-ethyl]-1H-imidazole], 0.0025 µM.
Same read-out and setting: the result for `Fc1cccc(CCc2cnc[nH]2)c1` [Example 12, 4-[2-(3-Fluoro-phenyl)-ethyl]-1H-imidazole] reads 0.0097 µM.
As for `FC(F)(F)c1cccc(CCc2cnc[nH]2)c1` [Example 13, 4-[2-(3-Trifluoromethyl-phenyl)-ethyl]-1H-imidazole], the inhibition constant (Ki) came out at 0.0106 µM.
The same measure, in the same setting: the result for `COc1cccc(CCc2cnc[nH]2)c1` [Example 14, 4-[2-(3-Methoxy-phenyl)-ethyl]-1H-imidazole] reads 0.0606 µM.
Still for that read-out and setting: in the case of `Clc1ccc(CCc2cnc[nH]2)cc1` [Example 16, 4-[2-(4-Chloro-phenyl)-ethyl]-1H-imidazole] it was 0.0172 µM; in that of `Clc1cc(Cl)cc(CCc2cnc[nH]2)c1` [Example 17, 4-[2-(3,5-Dichloro-phenyl)-ethyl]-1H-imidazole], 0.0019 µM.
As to `Clc1cccc(OCc2cnc[nH]2)c1Cl` [Example 20, 4-(2,3-Dichloro-phenoxymethyl)-1H-imidazole], under setting [1], the inhibitory constant (Ki) was 0.043 µM.
As to `Fc1cccc(OCc2cnc[nH]2)c1F` [Example 35, 4-(2,3-Difluoro-phenoxymethyl)-1H-imidazole], the Ki under setting [1] came to 0.0889 µM.
In the case of `Clc1ccc(OCc2cnc[nH]2)cc1Cl` [Example 36, 4-(3,4-Dichloro-phenoxymethyl)-1H-imidazole], the Ki under setting [1] was found to be 0.0227 µM.
Regarding `Fc1cc(OCc2cnc[nH]2)ccc1Cl` [Example 37, 4-(4-Chloro-3-fluoro-phenoxymethyl)-1H-imidazole], the Ki under setting [1] amounted to 0.0802 µM.
For `c1ncc(COc2ccc3ccoc3c2)[nH]1` [Example 39, 5-(Benzofuran-6-yloxymethyl)-1H-imidazole], the Ki under setting [1] was determined as 0.0684 µM.
On the same count and under the same terms, the result for `Clc1cccc(SCc2cnc[nH]2)c1Cl` [Example 42, 5-(2,3-Dichloro-phenylsulfanylmethyl)-1-imidazole] reads 0.0041 µM.
Still for that read-out and setting: in the case of `Cc1[nH]cnc1CSc1ccc(Cl)cc1` [Example 46, 4-(4-Chloro-phenylsulfanylmethyl)-5-methyl-1H-imidazole] it was 0.0146 µM; in that of `c1ccc2cc(SCc3c[nH]cn3)ccc2c1` [Example 47, 4-(Naphthalen-2-ylsulfanylmethyl)-1H-imidazole], 0.0103 µM.
